For six molecules, IC50 results are on record in patent US20240043439A1, “COMPOUNDS AS C5AR INHIBITORS” (Kira Pharmaceuticals (Suzhou) Ltd., priority 2020, published 2024).

The term IC50 denotes the point on the concentration scale where inhibition reaches its midpoint.

The target of the test is C5aR (Homo sapiens (Human), UniProt P21730). The experiment in a line: Calcium mobilization (U937/C5aR or HEK293/C5aR cells, FLIPR). The test is classed as cell-based. Particulars: agonist human C5a at EC80, FLIPR. As for the experimental part: U937/C5aR cells or HEK293/C5aR cells were washed by PBS and suspended in growth media at the density of 1×10^6 cells/ml. […] to the 384-well plate and culture for overnight. Transfer 250 nl compound solution to the cell plate using Echo, incubate for 60 min. Cells were added with Fluo-4 Direct™ dye and incubate for 50 min at 37° C. 5% CO2 and 10 m at room temperature. Place the cell plate into […] (Molecular Devices). Transfer 10 μl of 5-fold EC80 concentrations of agonist human C5a to the cell plates.
Background: Calcium assays in cells follow changes in intracellular calcium, usually with a dye or a luminescent sensor.

Chain of C5aR (P21730 whole entry): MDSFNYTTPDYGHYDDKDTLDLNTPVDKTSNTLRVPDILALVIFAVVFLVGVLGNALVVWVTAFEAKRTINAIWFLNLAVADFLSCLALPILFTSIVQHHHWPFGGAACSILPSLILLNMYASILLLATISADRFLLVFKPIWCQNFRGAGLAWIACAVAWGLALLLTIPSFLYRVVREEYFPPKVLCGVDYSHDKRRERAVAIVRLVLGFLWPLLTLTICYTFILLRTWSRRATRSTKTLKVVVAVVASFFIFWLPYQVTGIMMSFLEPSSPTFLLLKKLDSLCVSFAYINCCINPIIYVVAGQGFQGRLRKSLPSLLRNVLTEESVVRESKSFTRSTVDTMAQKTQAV

As to `Cc1ccc(NC(=O)[C@H]2CCCN[C@H]2c2ccc(N(c3ncnc4cccnc34)C3CCCC3)cc2)cc1C(F)(F)F` [Compound 176, (2R,3S)-2-(4-(cyclopentyl(pyrido[3,2-d]pyrimidin-4-yl)amino)phenyl)-N-(4-methyl-3-(trifluoromethyl)phenyl)piperidine-3-carboxamide], the IC50 is 2 to 10 µM.
Turning to `Cc1ccc(NC(=O)[C@H]2CCCN[C@H]2c2ccc(N(c3ncnc4ccccc34)C3CCCC3)cc2)cc1C(F)(F)F` [Compound 177, (2R,3S)-2-(4-(cyclopentyl(quinazolin-4-yl)amino)phenyl)-N-(4-methyl-3-(trifluoromethyl)phenyl)piperidine-3-carboxamide], the IC50 lay within 2 to 10 µM.
In the case of `Cc1ccc(NC(=O)[C@H]2CCCN[C@H]2c2ccc(N(c3ncnc4cnccc34)C3CCCC3)cc2)cc1C(F)(F)F` [Compound 178, (2R,3S)-2-(4-(cyclopentyl(pyrido[3,4-d]pyrimidin-4-yl)amino)phenyl)-N-(4-methyl-3-(trifluoromethyl)phenyl)piperidine-3-carboxamide], the IC50 was in the range of 2 to 10 µM.
In the case of `Cc1ccc(NC(=O)[C@H]2CCCN[C@H]2c2ccc(N(c3nncc4ccccc34)C3CCCC3)cc2)cc1C(F)(F)F` [Compound 179, (2R,3S)-2-(4-(cyclopentyl(phthalazin-1-yl)amino)phenyl)-N-(4-methyl-3-(trifluoromethyl)phenyl)piperidine-3-carboxamide], the concentration for half-maximal inhibition (IC50) was 2 to 10 µM.
As to `Cc1ccc(CNC(=O)[C@H]2C[C@H]3CCC[C@H]3N(C(=O)c3c(C)cccc3F)[C@H]2c2ccc(NC3CCCC3)cc2)cc1C(F)(F)F` [Compound 185, (2R,3S,4aR,7aR)-2-(4-(cyclopentylamino)phenyl)-1-(2-fluoro-6-methylbenzoyl)-N-(4-methyl-3-(trifluoromethyl)benzyl)octahydro-1H-cyclopenta[b]pyridine-3-carboxamide], the IC50 lay in the range of 2 to 10 µM.
Regarding “(cis-3-(6-chloro-1,2,3,4-tetrahydroisoquinoline-2-carbonyl)-2-(4-(cyclopentylamino)phenyl)octahydro-1H-cyclopenta[b]pyridin-1-yl)(2-fluoro-6-methylphenyl)methanone [Compound 72]”, the IC50 lay within 2 to 10 µM.
